Reference: PubChem BioAssay (NCI)
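These data come from cells grown in 96-well plates and exposed to compound for 48 hours at five concentrations. Definition used: TGI = concentration required for complete inhibition of growth.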

Legend:
Assay in all cases: NCI tumour cell line growth inhibition, 48 h
SF-539 CNS = system: SF-539 CNS
MOLT-4 leukemia = system: MOLT-4 leukemia
NCI/ADR-RES ovarian = system: NCI/ADR-RES ovarian
IGROV1 ovarian = system: IGROV1 ovarian
SK-MEL-2 melanoma = system: SK-MEL-2 melanoma
SK-MEL-5 melanoma = system: SK-MEL-5 melanoma
SK-OV-3 ovarian = system: SK-OV-3 ovarian
SK-MEL-28 melanoma = system: SK-MEL-28 melanoma
EKVX NSCLC = system: EKVX NSCLC
SR leukemia = system: SR leukemia
SW-620 colon = system: SW-620 colon
SNB-19 CNS = system: SNB-19 CNS
OVCAR-4 ovarian = system: OVCAR-4 ovarian
CAKI-1 renal = system: CAKI-1 renal
HCC-2998 colon = system: HCC-2998 colon
A549 NSCLC = system: A549 NSCLC
UO-31 renal = system: UO-31 renal
UACC-62 melanoma = system: UACC-62 melanoma
K-562 leukemia = system: K-562 leukemia
MALME-3M melanoma = system: MALME-3M melanoma
HOP-92 NSCLC = system: HOP-92 NSCLC
NCI-H23 lung = system: NCI-H23 lung
NCI-H460 lung = system: NCI-H460 lung
MDA-N = system: MDA-N
LOX IMVI melanoma = system: LOX IMVI melanoma
OVCAR-3 ovarian = system: OVCAR-3 ovarian
CCRF-CEM leukemia = system: CCRF-CEM leukemia
HL-60(TB) leukemia = system: HL-60(TB) leukemia
MDA-MB-435 = system: MDA-MB-435
RPMI-8226 leukemia = system: RPMI-8226 leukemia
ACHN renal = system: ACHN renal
SF-295 CNS = system: SF-295 CNS
PC-3 prostate = system: PC-3 prostate
TK-10 renal = system: TK-10 renal
SF-268 CNS = system: SF-268 CNS
A498 renal = system: A498 renal
BT-549 breast = system: BT-549 breast
HCT-15 colon = system: HCT-15 colon
MCF7 breast = system: MCF7 breast
OVCAR-8 ovarian = system: OVCAR-8 ovarian
HT29 colon = system: HT29 colon
COLO 205 colon = system: COLO 205 colon
HCT-116 colon = system: HCT-116 colon
HS 578T breast = system: HS 578T breast
HOP-62 NSCLC = system: HOP-62 NSCLC
M14 melanoma = system: M14 melanoma
UACC-257 melanoma = system: UACC-257 melanoma
786-0 renal = system: 786-0 renal
OVCAR-5 ovarian = system: OVCAR-5 ovarian
SN12C renal = system: SN12C renal
NCI-H522 lung = system: NCI-H522 lung
SNB-75 CNS = system: SNB-75 CNS
NCI-H226 lung = system: NCI-H226 lung
T-47D breast = system: T-47D breast
MDA-MB-231 breast = system: MDA-MB-231 breast
RXF 393 renal = system: RXF 393 renal
KM12 colon = system: KM12 colon
DU-145 prostate = system: DU-145 prostate

## COc1ccc(CCc2nccn2C)cc1OC
SF-539 CNS
  TGI: > 100 µM
MOLT-4 leukemia
  TGI: > 100 µM
NCI/ADR-RES ovarian
  TGI: > 100 µM
IGROV1 ovarian
  TGI: > 100 µM
SK-MEL-2 melanoma
  TGI: > 100 µM
SK-MEL-5 melanoma
  TGI: > 100 µM
SK-OV-3 ovarian
  TGI: > 100 µM
SK-MEL-28 melanoma
  TGI: > 100 µM
EKVX NSCLC
  TGI: > 100 µM
SR leukemia
  TGI: > 100 µM
SW-620 colon
  TGI: > 100 µM
SNB-19 CNS
  TGI: > 100 µM
OVCAR-4 ovarian
  TGI: > 100 µM
CAKI-1 renal
  TGI: > 100 µM
HCC-2998 colon
  TGI: > 100 µM
A549 NSCLC
  TGI: > 100 µM
UO-31 renal
  TGI: > 100 µM
UACC-62 melanoma
  TGI: > 100 µM
K-562 leukemia
  TGI: > 100 µM
MALME-3M melanoma
  TGI: > 100 µM
HOP-92 NSCLC
  TGI: > 100 µM
NCI-H23 lung
  TGI: > 100 µM
NCI-H460 lung
  TGI: > 100 µM
MDA-N
  TGI: > 100 µM
LOX IMVI melanoma
  TGI: > 100 µM
OVCAR-3 ovarian
  TGI: > 100 µM
CCRF-CEM leukemia
  TGI: > 100 µM
HL-60(TB) leukemia
  TGI: > 100 µM
MDA-MB-435
  TGI: > 100 µM
RPMI-8226 leukemia
  TGI: > 100 µM
ACHN renal
  TGI: > 100 µM
SF-295 CNS
  TGI: > 100 µM
PC-3 prostate
  TGI: > 100 µM
TK-10 renal
  TGI: > 100 µM
SF-268 CNS
  TGI: > 100 µM
A498 renal
  TGI: > 100 µM
BT-549 breast
  TGI: > 100 µM
HCT-15 colon
  TGI: > 100 µM
MCF7 breast
  TGI: > 100 µM
OVCAR-8 ovarian
  TGI: > 100 µM
HT29 colon
  TGI: > 100 µM
COLO 205 colon
  TGI: > 100 µM
HCT-116 colon
  TGI: > 100 µM
HS 578T breast
  TGI: > 100 µM
HOP-62 NSCLC
  TGI: > 100 µM
M14 melanoma
  TGI: > 100 µM
UACC-257 melanoma
  TGI: > 100 µM
786-0 renal
  TGI: > 100 µM
OVCAR-5 ovarian
  TGI: > 100 µM
SN12C renal
  TGI: > 100 µM

## FC1=C2CCCCCC2SC1(F)F (stereo not drawn)
MOLT-4 leukemia
  TGI: 44.1 µM
NCI/ADR-RES ovarian
  TGI: > 100 µM
IGROV1 ovarian
  TGI: > 100 µM
SK-MEL-2 melanoma
  TGI: > 100 µM
SK-MEL-5 melanoma
  TGI: > 100 µM
NCI-H522 lung
  TGI: 29.2 µM
SK-OV-3 ovarian
  TGI: > 100 µM
SK-MEL-28 melanoma
  TGI: > 100 µM
EKVX NSCLC
  TGI: > 100 µM
SNB-75 CNS
  TGI: > 100 µM
NCI-H226 lung
  TGI: > 100 µM
SR leukemia
  TGI: 53.6 µM
SW-620 colon
  TGI: 28.9 µM
SNB-19 CNS
  TGI: > 100 µM
OVCAR-4 ovarian
  TGI: > 100 µM
CAKI-1 renal
  TGI: > 100 µM
HCC-2998 colon
  TGI: > 100 µM
A549 NSCLC
  TGI: > 100 µM
UO-31 renal
  TGI: > 100 µM
UACC-62 melanoma
  TGI: > 100 µM
K-562 leukemia
  TGI: 47.8 µM
MALME-3M melanoma
  TGI: 52.4 µM
HOP-92 NSCLC
  TGI: 70.2 µM
NCI-H23 lung
  TGI: > 100 µM
MDA-N
  TGI: > 100 µM
LOX IMVI melanoma
  TGI: 31.4 µM
OVCAR-3 ovarian
  TGI: > 100 µM
CCRF-CEM leukemia
  TGI: 18.7 µM
HL-60(TB) leukemia
  TGI: 33.9 µM
MDA-MB-435
  TGI: 70.7 µM
RPMI-8226 leukemia
  TGI: 84.9 µM
ACHN renal
  TGI: 79.3 µM
T-47D breast
  TGI: > 100 µM
MDA-MB-231 breast
  TGI: > 100 µM
SF-295 CNS
  TGI: > 100 µM
PC-3 prostate
  TGI: > 100 µM
TK-10 renal
  TGI: > 100 µM
SF-268 CNS
  TGI: > 100 µM
BT-549 breast
  TGI: > 100 µM
HCT-15 colon
  TGI: > 100 µM
MCF7 breast
  TGI: > 100 µM
OVCAR-8 ovarian
  TGI: > 100 µM
RXF 393 renal
  TGI: 33.2 µM
HT29 colon
  TGI: > 100 µM
COLO 205 colon
  TGI: 39.2 µM
HCT-116 colon
  TGI: > 100 µM
HS 578T breast
  TGI: > 100 µM
KM12 colon
  TGI: > 100 µM
M14 melanoma
  TGI: > 100 µM
UACC-257 melanoma
  TGI: > 100 µM
786-0 renal
  TGI: > 100 µM
OVCAR-5 ovarian
  TGI: > 100 µM
DU-145 prostate
  TGI: > 100 µM
